Test results: patent US4774330A, “Cephalosporin intermediates” (Hoffmann-La Roche Inc., priority 1980, dated 1988)
Where a name gives a salt, the structure may show the parent alone. Read-outs that look alike come from different tables or passages of the source.

Tests used:
Staphylococcus aureus = test: MIC in vitro, Staphylococcus aureus; type: cell-based
Description: (§1) The following products were tested:
(§2) The following results relate to the minimum inhibitory concentration (MIC) in vitro (μg/ml): […]

Escherichia coli [1] = test: MIC in vitro, Escherichia coli; type: cell-based
Description: as §1, §2

Klebsiella pneumoniae = test: MIC in vitro, Klebsiella pneumoniae; type: cell-based
Description: as §1, §2

Serratia marcescens [2] = test: MIC in vitro, Serratia marcescens; type: cell-based
Description: as §1, §2

Enterobacter cloacae = test: MIC in vitro, Enterobacter cloacae; type: cell-based
Description: as §1, §2

Citrobacter freundii = test: MIC in vitro, Citrobacter freundii; type: cell-based
Description: as §1, §2

Proteus vulgaris = test: MIC in vitro, Proteus vulgaris; type: cell-based
Description: as §1, §2

Proteus morganii = test: MIC in vitro, Proteus morganii; type: cell-based; details: Morganella morganii
Description: as §1, §2

Proteus rettgeri = test: MIC in vitro, Proteus rettgeri; type: cell-based; details: Providencia rettgeri
Description: as §1, §2

Proteus inconstans = test: MIC in vitro, Proteus inconstans; type: cell-based; details: Providencia alcalifaciens
Description: as §1, §2

Proteus mirabilis = test: MIC in vitro, Proteus mirabilis; type: cell-based
Description: as §1, §2

Pseudomonas aeruginosa = test: MIC in vitro, Pseudomonas aeruginosa; type: cell-based
Description: as §1, §2

Neisseria meningitidis = test: MIC in vitro, Neisseria meningitidis; type: cell-based
Description: as §1, §2

Neisseria gonorrhoeae = test: MIC in vitro, Neisseria gonorrhoeae; type: cell-based
Description: as §1, §2

Haemophilus influenzae = test: MIC in vitro, Haemophilus influenzae; type: cell-based
Description: as §1, §2

[3] = tested on: Staphylococcus epidermidis; test: MIC in vitro, Staphylococcus epidermidis; type: cell-based
Description: as §1, §2

Streptococcus faecalis = test: MIC in vitro, Streptococcus faecalis; type: cell-based; details: Enterococcus faecalis
Description: as §1, §2

Streptococcus pyogenes [4] = test: MIC in vitro, Streptococcus pyogenes; type: cell-based
Description: as §1, §2

Streptococcus pneumoniae = test: MIC in vitro, Streptococcus pneumoniae; type: cell-based
Description: as §1, §2

Streptococcus viridans = test: MIC in vitro, Streptococcus viridans; type: cell-based
Description: as §1, §2

Enterobacter aerogenes = test: MIC in vitro, Enterobacter aerogenes; type: cell-based; details: Klebsiella aerogenes
Description: as §1, §2

[5] = half-life in vivo after i.v. administration; details: rat, plasma, iv; 20 mg i.v., rats
Description: The compounds of formula I as well as the corresponding readily hydrolyzable esters, readily hydrolyzable ethers and salts and the hydrates of same have antibiotic, especially bactericidal, activity.

Streptococcus pyogenes [6] = test: s.c. treatment of mice before i.p. infection, Streptococcus pyogenes; type: in vivo; details: sc, 5 hours before i.p. infection
Description: (§3) The long retention of the products in accordance with the invention in the organism is also evident after the s.c. treatment of mice with product A or C 5 hours before a i.p. infection with the microorganism to be tested, the following Ed50 values being ascertained: […]

Serratia marcescens [7] = test: s.c. treatment of mice before i.p. infection, Serratia marcescens; type: in vivo; details: sc, 5 hours before i.p. infection
Description: as §3

[8] = toxicity, 24 hours values; type: in vivo; details: 24 hours value; for MTD at 24 h: in vivo, read-out: Tolerated dosage
Description: The compounds in accordance with the invention are non-toxic, as will be evident from the following data for the 24 hours values of products A and B: […]

Escherichia coli [9] = test: s.c. treatment of mice before i.p. infection, Escherichia coli; type: in vivo; details: sc, administered 24 hours before the infection
Description: The long retention of the products in accordance with the invention in the organism is also evident after the s.c. treatment of mice with product A or C 5 hours before a i.p. infection with the microorganism to be tested, the following Ed50 values being ascertained: | *Administered 24 hours before the infection.

Cn1nc(O)c(=O)nc1SCC1=C(C(=O)O)N2C(=O)[C@@H](NC(=O)/C(=N\O)c3csc(N)n3)[C@H]2SC1 [Product A, (6R,7R)-7-[2-(2-Amino-4-thiazolyl)-2-(Z-hydroxyimino)acetamido]-3-/[(2,5-dihydro-6-hydroxy-2-methyl-5-oxo-as-triazin-3-yl)thio]methyl/-8-oxo-5-thia-1-azabicyclo[4.2.0]oct-2-ene-2-carboxylic acid disodium salt]
MIC (Staphylococcus aureus; strain 1): 0.62 µg/mL
MIC (Staphylococcus aureus; strain 2: β-lactamase producing): 1.2 µg/mL
MIC (Staphylococcus aureus; strain 3): 1.6 µg/mL
MIC (Staphylococcus aureus; strain 4): 1.6 µg/mL
MIC (Staphylococcus aureus; strain 5): 1.6 µg/mL
MIC (Staphylococcus aureus; strain 6): 3.1 µg/mL
MIC (Escherichia coli [1]; strain 1): 1.2 µg/mL
MIC (Escherichia coli [1]; strain 2): 1.2 µg/mL
MIC (Escherichia coli [1]; strain 3): 2.5 µg/mL
MIC (Escherichia coli [1]; strain 4): 0.31 µg/mL
MIC (Escherichia coli [1]; strain 5): 0.4 µg/mL
MIC (Escherichia coli [1]; strain 6): 0.2 µg/mL
MIC (Escherichia coli [1]; strain 7): 0.025 µg/mL
MIC (Escherichia coli [1]; strain 8): 0.05 µg/mL
MIC (Klebsiella pneumoniae; strain 1): 0.02 µg/mL
MIC (Klebsiella pneumoniae; strain 2): 0.1 µg/mL
MIC (Klebsiella pneumoniae; strain 3): 0.025 µg/mL
MIC (Klebsiella pneumoniae; strain 4): 0.05 µg/mL
MIC (Serratia marcescens [2]; strain 1): 0.16 µg/mL
MIC (Serratia marcescens [2]; strain 2): 0.31 µg/mL
MIC (Serratia marcescens [2]; strain 3): 0.31 µg/mL
MIC (Serratia marcescens [2]; strain 4): 0.63 µg/mL
MIC (Serratia marcescens [2]; strain 5): 0.31 µg/mL
MIC (Serratia marcescens [2]; strain 6): 0.31 µg/mL
MIC (Serratia marcescens [2]; strain 7): 0.31 µg/mL
MIC (Serratia marcescens [2]; strain 8): 0.31 µg/mL
MIC (Serratia marcescens [2]; strain 9): 0.16 µg/mL
MIC (Serratia marcescens [2]; strain 10): 0.8 µg/mL
MIC (Serratia marcescens [2]; strain 11): 6.3 µg/mL
MIC (Serratia marcescens [2]; strain 12): 0.1 µg/mL
MIC (Enterobacter cloacae; strain 1): 20 µg/mL
MIC (Enterobacter cloacae; strain 2): > 80 µg/mL
MIC (Enterobacter cloacae; strain 3): > 25 µg/mL
MIC (Enterobacter cloacae; strain 4): 12.5 µg/mL
MIC (Citrobacter freundii; strain 1): 80 µg/mL
MIC (Citrobacter freundii; strain 2): 6.3 µg/mL
MIC (Citrobacter freundii; strain 3): 0.2 µg/mL
MIC (Proteus vulgaris; strain 1): 0.31 µg/mL
MIC (Proteus vulgaris; strain 2): 0.31 µg/mL
MIC (Proteus vulgaris; strain 3): 0.63 µg/mL
MIC (Proteus vulgaris; strain 4): 3.1 µg/mL
MIC (Proteus vulgaris; strain 5): 0.1 µg/mL
MIC (Proteus vulgaris; strain 6): 0.05 µg/mL
MIC (Proteus morganii; strain 1): ≤ 0.04 µg/mL
MIC (Proteus morganii; strain 2): 0.05 µg/mL
MIC (Proteus rettgeri; strain 1): 0.63 µg/mL
MIC (Proteus rettgeri; strain 2): 0.05 µg/mL
MIC (Proteus inconstans; strain 1): 0.08 µg/mL
MIC (Proteus inconstans; strain 2): 0.01 µg/mL
MIC (Proteus inconstans; strain 3): ≤ 0.025 µg/mL
MIC (Proteus mirabilis; strain 1): 0.02 µg/mL
MIC (Proteus mirabilis; strain 2): 0.025 µg/mL
MIC (Proteus mirabilis; strain 3): 0.05 µg/mL
MIC (Proteus mirabilis; strain 4): 0.025 µg/mL
MIC (Pseudomonas aeruginosa; strain 1): > 80 µg/mL
MIC (Pseudomonas aeruginosa; strain 2): > 80 µg/mL
MIC (Pseudomonas aeruginosa; strain 3): 40 µg/mL
MIC (Pseudomonas aeruginosa; strain 4): 80 µg/mL
MIC (Pseudomonas aeruginosa; strain 5): > 80 µg/mL
MIC (Pseudomonas aeruginosa; strain 6): 10 µg/mL
MIC (Pseudomonas aeruginosa; strain 7): 5 µg/mL
MIC (Pseudomonas aeruginosa; strain 8): 20 µg/mL
MIC (Pseudomonas aeruginosa; strain 9): > 80 µg/mL
MIC (Pseudomonas aeruginosa; strain 10): 10 µg/mL
MIC (Pseudomonas aeruginosa; strain 11): 5 µg/mL
MIC (Pseudomonas aeruginosa; strain 12): > 80 µg/mL
MIC (Pseudomonas aeruginosa; strain 13): 80 µg/mL
MIC (Pseudomonas aeruginosa; strain 14): > 80 µg/mL
MIC (Pseudomonas aeruginosa; strain 15): 80 µg/mL
MIC (Pseudomonas aeruginosa; strain 16): > 80 µg/mL
MIC (Pseudomonas aeruginosa; strain 17): > 80 µg/mL
MIC (Neisseria meningitidis; strain 1): 0.0025 µg/mL
MIC (Neisseria meningitidis; strain 2): 0.0025 µg/mL
MIC (Neisseria meningitidis; strain 3): 0.0025 µg/mL
MIC (Neisseria meningitidis; strain 4): 0.0012 µg/mL
MIC (Neisseria gonorrhoeae; strain 1): 0.0012 µg/mL
MIC (Neisseria gonorrhoeae; strain 2): 0.0012 µg/mL
MIC (Neisseria gonorrhoeae; strain 3): 0.02 µg/mL
MIC (Neisseria gonorrhoeae; strain 4): 0.01 µg/mL
MIC (Neisseria gonorrhoeae; strain 5): 0.04 µg/mL
MIC (Neisseria gonorrhoeae; strain 6): 0.0006 µg/mL
MIC (Haemophilus influenzae; strain 1): 0.63 µg/mL
MIC (Haemophilus influenzae; strain 2): 0.04 µg/mL
MIC (Haemophilus influenzae; strain 3): 0.04 µg/mL
MIC (Haemophilus influenzae; strain 4): 0.04 µg/mL
MIC (Haemophilus influenzae; strain 5): 0.04 µg/mL
MIC (Haemophilus influenzae; strain 6): 0.02 µg/mL
MIC (Haemophilus influenzae; strain 7): 0.04 µg/mL
MIC [3]: 1.6 µg/mL
MIC (Streptococcus faecalis; strain 1): 25 µg/mL
MIC (Streptococcus faecalis; strain 2): > 25 µg/mL
MIC (Streptococcus pyogenes [4]; strain 1): 0.1 µg/mL
MIC (Streptococcus pyogenes [4]; strain 2): 0.05 µg/mL
MIC (Streptococcus pneumoniae): 0.4 µg/mL
MIC (Streptococcus viridans): 1.6 µg/mL
MIC (Enterobacter aerogenes; strain 1): 0.1 µg/mL
MIC (Enterobacter aerogenes; strain 2): 0.8 µg/mL
half-life [5]: 2.33 h
ED50 (Streptococcus pyogenes [6]): 0.15 mg/kg
ED50 (Serratia marcescens [7]): 0.89 mg/kg
MTD at 24 h ([8]; intravenous): 500 mg/kg
MTD at 24 h ([8]; oral): 5000 mg/kg
Lethal dosage ([8]; intravenous): 1000 mg/kg
Lethal dosage ([8]; oral): > 5000 mg/kg
Lethal dosage ([8]; subcutaneous): > 4000 mg/kg

Cn1nc(OCOC(=O)C(C)(C)C)c(=O)nc1SCC1=C(C(=O)O)N2C(=O)[C@@H](NC(=O)/C(=N\O)c3csc(N)n3)[C@H]2SC1 [Product B, (6R,7R)-7-[2-(2-Amino-4-thiazolyl)-2-(Z-hydroxyimino)acetamindo]-3-[[[2,5-dihydro-2-methyl-5-oxo-6-[(pivaloyloxy)methoxy]-as-triazin-3-yl]thio]methyl]-8-oxo-5-thia-1-azabicyclo[4.2.0]oct-2-ene-2-carboxylic acid sodium salt]
MIC (Staphylococcus aureus; strain 3): 0.4 µg/mL
MIC (Staphylococcus aureus; strain 4): 0.8 µg/mL
MIC (Staphylococcus aureus; strain 5): 0.4 µg/mL
MIC (Staphylococcus aureus; strain 6): 0.8 µg/mL
MIC (Escherichia coli [1]; strain 5): 0.4 µg/mL
MIC (Escherichia coli [1]; strain 6): 0.2 µg/mL
MIC (Escherichia coli [1]; strain 7): 0.05 µg/mL
MIC (Escherichia coli [1]; strain 8): 0.8 µg/mL
MIC (Klebsiella pneumoniae; strain 2): 1.6 µg/mL
MIC (Klebsiella pneumoniae; strain 3): 0.4 µg/mL
MIC (Klebsiella pneumoniae; strain 4): 0.8 µg/mL
MIC (Serratia marcescens [2]; strain 10): 6.3 µg/mL
MIC (Serratia marcescens [2]; strain 11): 12.5 µg/mL
MIC (Serratia marcescens [2]; strain 12): 1.6 µg/mL
MIC (Enterobacter cloacae; strain 3): > 25 µg/mL
MIC (Enterobacter cloacae; strain 4): 6.3 µg/mL
MIC (Citrobacter freundii; strain 2): 3.1 µg/mL
MIC (Citrobacter freundii; strain 3): 0.4 µg/mL
MIC (Proteus vulgaris; strain 4): 12.5 µg/mL
MIC (Proteus vulgaris; strain 5): 0.8 µg/mL
MIC (Proteus vulgaris; strain 6): 0.8 µg/mL
MIC (Proteus morganii; strain 2): 1.6 µg/mL
MIC (Proteus rettgeri; strain 2): 0.4 µg/mL
MIC (Proteus inconstans; strain 2): 0.2 µg/mL
MIC (Proteus inconstans; strain 3): ≤ 0.025 µg/mL
MIC (Proteus mirabilis; strain 2): 0.4 µg/mL
MIC (Proteus mirabilis; strain 3): 1.6 µg/mL
MIC (Proteus mirabilis; strain 4): 0.8 µg/mL
MIC [3]: 0.4 µg/mL
MIC (Streptococcus faecalis; strain 1): 6.3 µg/mL
MIC (Streptococcus faecalis; strain 2): > 25 µg/mL
MIC (Streptococcus pyogenes [4]; strain 1): 0.025 µg/mL
MIC (Streptococcus pyogenes [4]; strain 2): 0.025 µg/mL
MIC (Streptococcus pneumoniae): 0.1 µg/mL
MIC (Streptococcus viridans): 0.4 µg/mL
MIC (Enterobacter aerogenes; strain 1): 0.2 µg/mL
MIC (Enterobacter aerogenes; strain 2): 1.6 µg/mL
MTD at 24 h ([8]; sc, subcutaneous): > 4000 mg/kg
MTD at 24 h ([8]; oral): > 5000 mg/kg

Cn1nc(OCOC(=O)C(C)(C)C)c(=O)nc1SCC1=C(C(=O)OCOC(=O)C(C)(C)C)N2C(=O)[C@@H](NC(=O)/C(=N\O)c3csc(N)n3)[C@H]2SC1 [Product C, Methylene-(6R,7R)-7-[2-(2-amino-4-thiazolyl)-2-(Z-hydroxyimino)acetamido]-3-[[[2,5-dihydro-2-methyl-5-oxo-6-[(pivaloyloxy)methoxy]-as-triazin-3-yl]thio]methyl]-8-oxo-5-thia-1-azabicyclo[4.2.0]-oct-2-ene-2-carboxylate pivalate]
ED50 (Streptococcus pyogenes [6]): 0.45 mg/kg
ED50 (Escherichia coli [9]): 5.6 mg/kg
